Molecular target: T1, soluble epoxide hydrolase (sEH) (Homo sapiens, UniProt P34913)
T1 sequence (P34913 1-555): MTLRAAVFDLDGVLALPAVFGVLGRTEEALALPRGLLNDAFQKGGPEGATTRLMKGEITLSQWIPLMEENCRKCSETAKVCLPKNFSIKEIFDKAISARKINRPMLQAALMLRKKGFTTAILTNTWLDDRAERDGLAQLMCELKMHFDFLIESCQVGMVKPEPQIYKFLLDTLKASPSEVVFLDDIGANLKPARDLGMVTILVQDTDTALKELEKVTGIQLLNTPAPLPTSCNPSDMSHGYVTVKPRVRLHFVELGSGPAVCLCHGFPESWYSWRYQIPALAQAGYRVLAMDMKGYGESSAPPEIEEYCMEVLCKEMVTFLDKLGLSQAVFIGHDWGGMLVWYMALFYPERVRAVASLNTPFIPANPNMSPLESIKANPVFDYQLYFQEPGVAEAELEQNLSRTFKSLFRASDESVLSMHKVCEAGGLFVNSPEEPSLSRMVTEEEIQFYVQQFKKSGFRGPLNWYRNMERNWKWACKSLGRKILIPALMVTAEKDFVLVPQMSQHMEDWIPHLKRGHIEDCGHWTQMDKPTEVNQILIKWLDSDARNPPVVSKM
Test: in vitro biochemical activity test, sEH enzyme inhibition with EET substrate (LC-MS)
Settings: 90 min pre-incubation at room temperature, 60 min reaction
Procedure: This example relates to the relationship between the structure and activity of (hetero)aryl imidazole compounds containing an aromatic substituent. Specifically, the biochemical activity of the (hetero)aryl imidazole compounds containing an aromatic substituent described in Example 1 as sEH enzyme inhibitors was evaluated by in vitro activity test experiments.
The experimental procedures for evaluating in vitro biochemical activity were described below.
The substrate used in the evaluation experiment was epoxyeicosatrienoic acid (EET). The solutions used in the evaluation experiments were Bis/Tris HCl 25 mM pH 7.0, Bis/Tris HCl 25 mM pH 7.0 containing 0.1 mg/mL BSA was used as buffer A, and Bis/Tris HCl 25 mM pH 7.0 containing 36.3 mM ZnSO4 was used as buffer B.
The specific steps of the evaluation experiment were as follows. 79 μL of buffer A was added to each well in a black 96-well plate and then 1 μL solution of the aromatic substituent-containing (hetero)aryl imidazole compound was added. Then, 10 μL sEH (1 μM) buffer A solution was added to the wells. After pre-incubation at room temperature for 90 min, 10 μL EET (10 μM) buffer A solution was added to trigger the reaction. After the mixture was allowed to react […] for 60 min, 15 μL buffer B and 180 μL acetonitrile were added to quench the reaction, followed by high-speed centrifugation and filtration for later use.
LC-MS was used to detect the concentration of EET in the samples. The final IC50 was calculated based on three independent experiments using Graphpad Prism software.

| IC50 | Structure (SMILES) |
| --- | --- |
| 0.036 nM | CC(C)c1ncncc1-c1cc2[nH]c(-c3ccc(S(=O)(=O)N(C)C)cc3)nc2cc1F [Compound 47, 4-(5-fluoro-6-(4-isopropyl-pyrimid-5-yl)-1H-benzo[d]imidazol-2-yl)-N,N-dimethyl-benzenesulfonamide] |
| 0.081 nM | Fc1c(-c2ccnn2C2CC2)cc2[nH]c(-c3ccc(C(F)(F)F)cc3)nc2c1F [Compound 75, 2-(4-(trifluoromethyl)phenyl)-6-(1-cyclopropyl-1H-pyrazol-5-yl)-4,5-difluoro-1H-benzo [d]imidazole] |
| 0.081 nM | Cc1nc(N2CCOCC2)ncc1-c1cc2nc(-c3ccc(S(=O)(=O)N(C)C)cc3)[nH]c2cc1F [Compound 26, 4-(5-fluoro-6-(4-methyl-2-morpholinopyrimid-5-yl)-1H-benzo[d]imidazol-2-yl)-N,N-dimethylbenzenesulfonamide] |
| 0.17 nM | Fc1c(-c2cnc(N3CCOCC3)nc2C(F)F)cc2[nH]c(-c3ccc(C(F)(F)F)cc3)nc2c1F [Compound 74] |
| 0.063 nM | CN(C)S(=O)(=O)c1ccc(-c2nc3cc(-c4cnc(N)cc4Cl)c(F)cc3[nH]2)cc1 [Compound 40, 4-(6-(6-amino-4-chloropyr-idin-3-yl)-5-fluoro-1H-benzo [d]imidazol-2-yl)-N,N-dimeth-ylbenzenesuIfonamide] |
| 0.15 nM | CN(C)S(=O)(=O)c1ccc(-c2nc3cc(-c4cncnc4C(F)(F)F)c(F)cc3[nH]2)cc1 [Compound 33, 4-(5-fluoro-6-(4-(trifluoro-methyl)pyrimid-5-yl)-1H-benzo [d]imidazol-2-yl)-N,N-dimeth-ylbenzenesulfonamide] |
| 0.23 nM | Cc1[nH]c(=O)ccc1-c1cc2nc(-c3ccc(S(=O)(=O)N(C)C)cc3)[nH]c2cc1F [Compound 41, 4-(5-fluoro-6-(2-methyl-6-oxo-1,6-dihydropyridin-3-yl)-1H-benzo[d]imidazol-2-yl)-N,N-dimethylbenzenesulfon-amide] |
| 0.057 nM | CC(C)n1nc(N)cc1-c1cc2[nH]c(-c3ccc(S(=O)(=O)N(C)C)cc3)nc2cc1F [Compound 60, 4-(6-(1-isopropyl-3-amino-1H-pyrazol-5-yl)-5-fluoro-1H-benzo[d]imidazol-2-yl)-N,N-dimethylbenzenesulfonamide] |
| 0.4 nM | Cc1cc(-c2cc3nc(-c4ccc(C(F)(F)F)cc4)[nH]c3cc2F)n(C)n1 [Compound 13, 6-(1,3-dimethyl-1H-pyrazol-5-yl)-5-fluoro-2-(4-(trifluoro-methyl)phenyl)-1H-benzo[d] imidazole] |
| 0.99 nM | Cc1ncc(-c2cc3nc(-c4ccc(S(C)(=O)=O)cc4)[nH]c3cc2Cl)c(Cl)n1 [Compound 4, 5-chloro-6-(4-chloro-2-meth-ylpyrimid-5-yl)-2-(4-(methyl-sulfonyl)phenyl)-1H-benzo[d] imidazole] |
| 0.2 nM | Cc1nn(S(C)(=O)=O)c(C)c1-c1cc2nc(-c3ccc(C(F)(F)F)cc3)[nH]c2cc1F [Compound 24, 6-(3,5-dimethyl-1-(methyl-sulfonyl)-1H-pyrazo1-4-yl)-5-fluoro-2-(4-(trifluoromethyl)-phenyl)-1H-benzo[d]imidazole] |
| 0.54 nM | Cc1cc(F)ncc1-c1cc2nc(-c3ccc(S(N)(=O)=O)cc3)[nH]c2cc1F [Compound 36, 4-(5-fluoro-6-(6-fluoro-4-methylpyridin-3-yl)-1H-benzo [d]imidazol-2-l)benzenesulfon-amide] |
| 11 nM | COc1ccc(-c2nc3cc(-c4ccncc4Cl)c(F)cc3[nH]2)cc1F [Compound 2, 6-(3-chloropyridin-4-yl)-5-fluoro-2-(3-fluoro-4-meth-oxyphenyl)-1H-benzo[d] imidazole] |
| 0.13 nM | COc1nc(C)ncc1-c1cc2nc(-c3ccc(S(=O)(=O)N(C)C)cc3)[nH]c2cc1F [Compound 32, 4-(5-fluoro-6-(4-methoxy-2-methylpyrimid-5-yl)-1H-benzo[d]imidazol-2-yl)-N,N-dimethylbenzenesulfonamide] |
| 0.15 nM | Nc1ncc(-c2cc3[nH]c(-c4ccc(F)c(C(F)(F)F)c4)nc3c(F)c2F)c(C(F)F)n1 [Compound 81, 5-(2-(3-(trifluoromethyl)-4-fluorophenyl)-4,5-difluoro-1H-benzo[d]imidazol-6-yl)-4-(difluoromethyl)pyrimidine-2-amine] |
| 0.033 nM | Cc1cc(N)ncc1-c1cc2[nH]c(-c3ccc(S(=O)(=O)N(C)C)cc3)nc2c(F)c1F [Compound 45, 4-(6-(6-amino-4-methylpyr-idin-3-yl)-4,5-difluoro-1H-benzo[d]imidazol-2-yl)-N,N-dimethylbenzenesulfonamide] |
| 0.088 nM | COc1cc(C)c(-c2cc3nc(-c4ccc(S(=O)(=O)N(C)C)cc4)[nH]c3cc2F)cn1 [Compound 39, 4-(5-fluoro-6-(6-methoxy-4-methylpyridin-3-yl)-1H-benzo [d]imidazol-2-yl)-N,N-dimeth-ylbenzenesulfonamide] |
| 0.096 nM | Cc1nc(N)ncc1-c1cc2[nH]c(-c3ccc(C(F)F)cc3)nc2c(F)c1F [Compound 44, 5-(2-(4-(difluoromethyl)phen-yl)-4,5-difluoro-1H-benzo[d]imidazol-6-yl)-4-methylpyr-imidine-2-amine] |
| 0.081 nM | Cc1nn(C(F)F)cc1-c1cc2[nH]c(-c3ccc(C(F)(F)F)cc3)nc2c(F)c1F [Compound 76, 2-(4-(trifluoromethyl)phenyl)-6-(3-methyl-1-(difluorometh-yl)-1H-pyrazol-4-yl)-4,5-difluoro-1H-benzo[d]imidazole] |
| 4.8 nM | CN1CCN(c2ncc(-c3cc4nc(-c5ccc(C(F)(F)F)cc5)[nH]c4cc3F)cn2)CC1 [Compound 17, 5-fluoro-6-(2-(4-methylpiper-azine-1-yl)pyrimid-5-yl)-2-(4-(trifluoromethyl)phenyl)-1H-benzo[d]imidazole] |
| 0.98 nM | CC(C)n1nccc1-c1cc2nc(-c3ccc(S(C)(=O)=O)cc3)[nH]c2cc1F [Compound 19, 5-fluoro-6-(1-isopropyl-1H-pyrazol-5-yl)-2-(4-(methyl-sulfonyl)phenyl)-1H-benzo[d] imidazole] |
| 0.14 nM | Cc1cnccc1-c1cc2nc(-c3ccc(C(F)F)cc3)[nH]c2cc1F [Compound 11, 2-(4-(difluoromethyl)phenyl)-5-fluoro-6-(3-methylpyridin-4-yl)-1H-benzo[d]imidazole] |
| 0.1 nM | Cc1ccncc1-c1cc2[nH]c(-c3ccc(S(=O)(=O)N(C)C)cc3)nc2cc1F [Compound 55, 4-(6-(4-methylpyridin-3-yl)-5-fluoro-1H-benzo[d]imidazol-2-yl)-N,N-dimethylbenzene-sulfonamide] |
| 0.38 nM | CNS(=O)(=O)c1ccc(-c2nc3cc(-c4cnc(F)cc4C)c(F)cc3[nH]2)cc1 [Compound 37, 4-(5-fluoro-6-(6-fluoro-4-methylpyridin-3-yl)-1H-benzo [d]imidazol-2-yl)-N-methyl-benzenesulfonamide] |
| 0.1 nM | Cc1ncc(-c2cc3nc(-c4ccc(S(=O)(=O)N(C)C)cc4)[nH]c3cc2Cl)c(Cl)n1 [Compound 30, 4-(5-chloro-6-(4-chloro-2-methylpyrimid-5-yl)-1H-benzo [d]imidazol-2-yl)-N,N-dimeth-ylbenzenesulfonamide] |
| 0.051 nM | CC(C)n1nccc1-c1cc2nc(-c3ccc(S(=O)(=O)N(C)C)cc3)[nH]c2cc1F [Compound 21, 4-(5-fluoro-6-(1-isopropyl-1H-pyrazol-5-yl)-1H-benzo[d]imidazol-2-yl)-N,N-dimethyl-benzenesulfonamide] |
| 7.6 nM | Cc1ccc(-c2cc3nc(-c4ccc(C(=O)N5CCC[C@@H](C(N)=O)C5)cc4)[nH]c3cc2F)c(Cl)n1 [Compound 3, (R)-1-(4-(6-(2-chloro-6-meth-ylpyridin-3-yl)-5-fluoro-1H-benzo[d]imidazol-2-yl)benzo-yl)piperidine-3-carboxamide] |
| 0.62 nM | Cc1ccc(-c2cc3nc(-c4ccc(C(F)(F)F)cc4)[nH]c3cc2F)cn1 [Compound 15, 5-fluoro-6-(6-methylpyridin-3-yl)-2-(4-(trifluoromethyl)-phenyl)-1H-benzo[d]imidazole] |
| 0.045 nM | CN(C)S(=O)(=O)c1ccc(-c2nc3cc(-c4ccnn4C(C)(C)F)c(F)cc3[nH]2)cc1 [Compound 38, 4-(5-fluoro-6-(1-(2-fluoropro-pan-2-yl)-1H-pyrazol-5-yl)-1H-benzo[d]imidazol-2-yl)-N,N-dimethylbenzenesulfon-amide] |
